Data set [1] deals with C57B16/J male mice. Put plainly: Dose-response of APAP toxicity (LD60) in mice. The data set is classed as in vivo. As to the method: In prior experiments in the laboratory, the LD60, of APAP was determined to be about 600 mgs/kg. The molecular weight of APAP is 151; therefore, the LD60, was about 4 mMol/Kg.
Data set [2] relates to C57B16/J male mice. To be noted: APAP 4 mMol/kg (600 mg/kg) IP plus 0.2 ml physiological saline; three of eight animals.
The conditions of data set [3]: cited from earlier work.
For data set [4] the following is noted: cited from earlier work. The source holds these as a separate data set.
The test system of data set [5] is UDP-glucose dehydrogenase. To be noted: UDP-glucose dehydrogenase reaction; cited from earlier work.

Regarding `CC(=O)Nc1ccc(O)cc1` [APAP, N-acetyl-p-aminophenol], the LD60 entry in data set [1] (converted with molecular weight 151) is “about 4 mMol/Kg”; in data set [1] (prior experiments in the laboratory) it was “about 600 mgs/kg”. Further, in data set [2], the “survival at 24 hours, APAP/saline (control group)” value turned out to be 37.5%. In addition, in data set [3] (adult, normal (non-saturated) conditions), the “share of circulating acetaminophen undergoing Phase II glucuronide conjugation” value was “approximately 55%”. The “share of circulating acetaminophen undergoing Phase II sulfonate conjugation” value in data set [3] (adult) was “approximately 30%”. Further, in data set [3] (normal conditions), the “share of circulating acetaminophen undergoing Phase I metabolism by cytochrome P-450 enzymes” value is on record as “Five”. In addition, the “median half-life after an overdose” value in data set [4] (112 patients, overdose) was 5.4 h. In addition, the “time of maximal blood concentrations after ingestion” value in data set [4] (human, oral) is 20 to 80 min. Further, the “experimental half-life (t0.5 β)” value in data set [4] (human, single oral dose of 1-3 gms) is 1.75 to 2.67 h. In data set [4] (human), the volume of distribution entry was “approximately 0.95 L/Kg”. In data set [4] (therapeutic dose), the “share of a therapeutic dose biotransformed in the liver” value is 95%. Besides, in data set [4] (toxic dose, first 24 hours), the “share of the toxic dose excreted in the first 24 hours” value was “over 90%”.

As usually defined, the Km is the concentration of substrate that gives half-maximal velocity. As to `NC(=O)c1ccc[n+]([C@@H]2O[C@H](COP(=O)([O-])OP(=O)(O)OC[C@H]3O[C@@H](n4cnc5c(N)ncnc54)[C@H](O)[C@@H]3O)[C@@H](O)[C@H]2O)c1` [NAD^+, nicotinamide adenine dinucleotide], the Km in data set [5] was 424 µM.

The values above are taken from patent US20080188439A1, “Directed metabolism of compounds by glucuronidation and sulfonation donors to decrease toxicity” (priority 2006, published 2008).
